The text below walks through data of the NIST ThermoML archive (doi:10.1021/je400255c).

Numbers after ± are expanded uncertainties.

Data set [1] is described as follows: Molar enthalpy of transition or fusion. To be noted: DSC.
The conditions of data set [2]: DTA.

For the compound `O=C[O-].[K+]` [potassium formate], the “Molar enthalpy of transition or fusion” value in data set [1] (Crystal 1) came out at 2.76 ± 0.0478 kcal/mol; in data set [1] (Crystal 2), 0.153 ± 0.00239 kcal/mol. In addition, in data set [2] (Crystal 1), the Normal melting temperature came to 168.70 ± 1.5 °C. Moreover, the Triple point temperature in data set [2] (Crystal 2) is recorded as 412.65 ± 1 K.
